Data: patent publication US7468391B2, “Methods for treating retinoid responsive disorders using selective inhibitors of CYP26A and CYP26B” (Allergan, Inc., priority 2003, dated 2008)

Experiments:
CYP26B (P450RAI-2) = target: T1, CYP26B (P450RAI-2) (Homo sapiens, UniProt Q9NR63); experiment: Cell-based inhibition of RA metabolism in CYP26B stably transfected HeLa cells; conditions: for IC50: Table 3, stably transfected HeLa cells, [3H]-RA, 3 hours at 37° C., read-out: CYP26B Intact cells IC50
T1 construct: expressed in transfected cells; host or cells: HeLa
T1 sequence (Q9NR63 1-512): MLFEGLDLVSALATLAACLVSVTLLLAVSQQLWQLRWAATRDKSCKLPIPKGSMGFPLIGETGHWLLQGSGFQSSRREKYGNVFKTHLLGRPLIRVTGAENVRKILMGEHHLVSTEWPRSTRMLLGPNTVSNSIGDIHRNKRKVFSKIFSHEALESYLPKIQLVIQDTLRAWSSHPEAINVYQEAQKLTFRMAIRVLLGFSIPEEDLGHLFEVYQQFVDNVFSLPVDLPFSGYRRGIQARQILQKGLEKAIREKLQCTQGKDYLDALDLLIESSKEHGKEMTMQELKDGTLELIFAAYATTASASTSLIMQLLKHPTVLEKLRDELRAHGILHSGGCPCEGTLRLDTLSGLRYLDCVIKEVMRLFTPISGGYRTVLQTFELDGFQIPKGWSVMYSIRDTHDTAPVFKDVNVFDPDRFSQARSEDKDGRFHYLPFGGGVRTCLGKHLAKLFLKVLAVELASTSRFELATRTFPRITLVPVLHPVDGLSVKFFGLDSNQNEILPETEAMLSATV
Procedure, shortened: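 Stably transfected HeLa cells (5×10^5/well) in MEM with 10% FBS and 0.05 μCi [3H]-RA, compounds at 10, 1 or 0.1 μM final, 3 h at 37° C. Retinoids extracted by modified Bligh-Dyer (methylene chloride); aqueous radioactivity counted; ID50 for 50% inhibition of RA metabolism derived from log-transformed data.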

[1] = system: hamster flank organ sebaceous gland; experiment: Hamster flank organ sebaceous gland differentiation (model for acne); format: in vivo, male golden syrian hamsters; conditions: compared with 13-cis retinoic acid (30 mg/kg), FIG. 3
Description: Differentiation of hamster flank organ sebaceous gland is a model system for development of acne. To determine the effectiveness of selective CYP26B inhibitors for treating acne, such inhibitors were tested in this model system. To confirm that this model system can predict the effectiveness of a compound in reducing acne, 13-cis retinoic acid (acutane) was used as a positive control.
For the hamster model system, male golden syrian hamsters were fed LabDiet#5002 rodent diet and housed individually on a 14/10 hr light/dark cycle. For treatment, the animals were randomized according to body weight and they were also weighed at each treatment so that the drug doses could be adjusted accordingly. The animals were treated daily by oral gavage, 6 days/week for 4 weeks. At the end of treatments, the animals were sacrificed by carbon dioxide inhalation. The flank organs were then excised and spread on a small piece of index card which was placed in a histology cassette for fixation in 10% buffered formaldehyde. The specimen was divided into 5 equally spaced portions to make paraffin blocks and one 5-micrometer H&E sections was prepared from each block. The two sections that contained the most sebaceous glands were used to determine the average acini area of the flank organ. A video camera attached to a standard microscope with the 4× objective was used to capture the images of the sebaceous glands. Computer programs Videoshop and NIH Image 1.63 were used to quantify the acini areas. All the recognizable sebaceous glands in the two sections were analyzed and the means were derived for comparison among various treatments. In all studies, blood samples were also collected for determining the levels of serum triglyceride using a triglyceride GPO Trinder kit from Sigma Chemicals (St. Louis, Mo.).

| SMILES | IC50 (CYP26B (P450RAI-2)) | hamster flank sebaceous gland differentiation ([1]; 50 mg/kg) | selectivity for CYP26B relative to CYP26A (CYP26B (P450RAI-2); ratio of ID50 values) | hamster flank sebaceous gland differentiation ([1]; 12.5 mg/kg) |
| --- | --- | --- | --- | --- |
| CN(C1CC1)C1CCC(C)(C)c2cc(C#Cc3ccc(C(C)(C)C(=O)O)cc3)ccc21 (centres unmarked) [AGN 198790] | > 10000 nM | reduced hamster flank sebaceous gland differentiation at least as effectively as 13-cis retinoic acid |  |  |
| CN(Cc1cccc(C#Cc2ccc(/C=C/C(=O)O)cc2)c1)C1CC1 [AGN 199713] | 600 nM |  | at least 10 fold | reduced hamster flank sebaceous gland differentiation at least as effectively as 13-cis retinoic acid |
